These results are taken from patent US20210121438A1, “METHODS FOR TREATING OR PREVENTING CONFORMATION DISEASES AND METHODS FOR DRUG SCREENING” (GARAGE BRAIN SCIENCE CO., LTD, priority 2018, published 2021).

One experiment concerns the target T1, SMN (Homo sapiens, UniProt Q16637).
T1 construct: endogenous in cells; host or cells: 293T (also mes23.5)
Nature of the experiment: B-isox precipitation, SMN. Format: binding. Conditions: 100 μM b-isox, lysates of mes23.5 and 293T cells, 4° C. As to the method: (§1) B-isox Precipitation: The 293T cells were harvested and lysed with RIPA buffer. The protein concentration was adjusted to 1 to 10 mg/mL, and 10 mM biotinylated isoxazole was added to the cell lysate to a final concentration of 100 to 200 µM. The mixtures were then incubated at 4° C. for 60 min, centrifuged at 15000 rpm for 15 min at 4° C., and the supernatant was discarded. The entire reaction volumes were subjected to SDS-PAGE and western blotting.
Biotinylated isoxazole (b-isox), a recently identified specific chemical probe, specifically recognizes the cross-β prion-like polymer and sequentially precipitates with proteins with low complexity, prion-like domains, or phase-separated domains, such as TDP-43 and Fus. We initially incubated 100 μM b-isox with cell lysates of mes23.5 and 293T cells at 4° C. to chemically precipitate whole prion-like proteins and then analyzed the efficiency of SMN binding by western blotting to assess the prion-like or phase transition potential of SMN (FIGS. 8a and b). […] H3K4me3 proteins were used as control for insoluble loading (FIG. 8c). Indeed, insoluble SMN has been reported to be important for the assembly of Cajal bodies (CBs) via the SUMO-like interacting motif (SIM-like). Thus, sumoylation is one of the cellular regulatory mechanisms that trigger nuclear SMN to form the separated phase though cross-β polymerization.

The test system of another experiment is SMNA7 cells. Nature of the experiment: Morphology (neurite-like structure) of SMNA7 cells. The settings on record: after treating with b-isox. The class given is cell-based. From the text:
We investigate whether baicalein can act as a pharmacological chaperone to refold misfolded SMNA7 into a functional prion-like domain, as shown in FIG. 8 (FIG. 10a). […] PFN1 is a known SMN interactor in the cytosol. We further examined whether baicalein attenuated the degradation of the SMNA7 protein. […] We found baicalein increased the length of axons from NSC34 cells expressing SMNA7 by approximately 2-fold (FIG. 10g).

Experiment [1] deals with T2, TDP-43 and Lam B recombinant proteins (Homo sapiens, UniProt Q13148).
T2 construct: Purified full-length TDP-43 and Lam B recombinant proteins (equivalent 3 μM monomer)
The experiment can be described thus: In vitro assembly of TDP-43 and Lam B filaments (electron microscopy). Format: biochemical. Conditions: 3 μM proteins, b-isox 100 μM, 2 hr, RT. As to the method: To investigate the de novo mechanism of heterotypic interactions of the cross-β, we incubated TDP-43 and Lam B recombinant proteins with or without b-isox for 2 hr in vitro. […] In cells, the percentage of cross-β conformers of LC protein was approximately 10˜70% by the b-isox binding analysis, e.g. 21.2% cross-β conformers of TDP-43 in Mes23.5 dopaminergic neurons (FIG. 13j). We assume that inside the cells, most of the intrinsically disordered LC domains are protected through structure folding or binding with other proteins that limits the cross-β-nucleating reactions.

The target of the next experiment is T3, PFN1 (Homo sapiens, UniProt P07737).
T3 construct: endogenous in cells; host or cells: 293T
Nature of the experiment: B-isox precipitation, PFN1. Format: binding. The settings on record: 293T cell fractions. As for the experimental part: as §1
Because visible SMN granules were not observed in the cytosol under normal conditions, we deduced that SMN polymers may participate in heteromeric interactions with other prion-like proteins to fulfill biological functions in the cytosol. […] Mutations in PFN1 cause co-aggregation with TDP-43 in patients with familial amyotrophic lateral sclerosis (ALS), supporting the hypothesis that PFN1 is a prion-like protein. […] Thus, we postulated that these interactions were mediated by prion-like nature. Furthermore, we incubated full-length SMN or a panel of exon deletion constructs of SMN with b-isox and then performed a western blot analysis to identify the b-isox binding site in SMN. […] The domains encoded by exons 2b and 6 have consistently been reported to self-interact. […] Based on the results of the solubility examination, variants containing exons 6-7 were not detected in the insoluble fraction, although those variants formed visible granules. […]

The target in the next experiment is T4, Rb (Homo sapiens, UniProt P06400).
T4 construct: endogenous in cells; host or cells: 293T
T4 sequence (P06400 1-928): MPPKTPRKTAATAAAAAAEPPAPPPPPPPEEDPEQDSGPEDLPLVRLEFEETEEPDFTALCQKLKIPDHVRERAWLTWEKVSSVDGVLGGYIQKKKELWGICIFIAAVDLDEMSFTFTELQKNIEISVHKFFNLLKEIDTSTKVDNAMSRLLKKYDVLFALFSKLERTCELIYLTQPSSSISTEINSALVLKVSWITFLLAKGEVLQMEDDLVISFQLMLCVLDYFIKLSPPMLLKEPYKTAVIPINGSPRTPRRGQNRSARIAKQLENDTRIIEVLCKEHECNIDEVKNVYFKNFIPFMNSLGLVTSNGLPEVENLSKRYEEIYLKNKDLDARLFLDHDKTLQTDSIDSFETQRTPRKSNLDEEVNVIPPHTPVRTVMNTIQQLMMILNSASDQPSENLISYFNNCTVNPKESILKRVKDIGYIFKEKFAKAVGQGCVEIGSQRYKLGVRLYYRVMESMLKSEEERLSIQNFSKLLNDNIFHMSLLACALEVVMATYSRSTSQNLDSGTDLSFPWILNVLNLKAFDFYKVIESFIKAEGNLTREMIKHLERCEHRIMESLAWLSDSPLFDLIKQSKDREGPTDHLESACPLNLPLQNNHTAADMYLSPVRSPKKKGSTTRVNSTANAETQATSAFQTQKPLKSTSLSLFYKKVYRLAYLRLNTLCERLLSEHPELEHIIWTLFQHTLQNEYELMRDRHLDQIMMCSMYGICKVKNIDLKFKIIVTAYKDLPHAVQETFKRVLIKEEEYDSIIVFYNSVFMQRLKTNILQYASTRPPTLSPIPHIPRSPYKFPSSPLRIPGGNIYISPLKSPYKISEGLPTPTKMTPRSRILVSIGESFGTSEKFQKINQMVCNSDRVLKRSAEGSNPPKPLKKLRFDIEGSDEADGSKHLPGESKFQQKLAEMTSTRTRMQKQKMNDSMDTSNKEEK
Nature of the experiment: B-isox precipitation, Rb. Format: binding. Conditions: 100 μM b-isox, lysates of 293T cells, 4° C. As to the method:
as §1
We incubated 100 μM b-isox with cell lysates of 293T cells at 4° C. to chemically precipitate whole prion-like proteins and then analyzed the efficiency of Rb binding by western blotting to assess the prion-like or phase transition potential of Rb (FIG. 22). […] The N-terminus of Rb (aa. 10-56) stabilizes prion-like conformation (FIG. 22c). Deletion of Rb N-terminus leads to protein degradation (FIG. 22d).

T3 sequence (P07737 whole entry): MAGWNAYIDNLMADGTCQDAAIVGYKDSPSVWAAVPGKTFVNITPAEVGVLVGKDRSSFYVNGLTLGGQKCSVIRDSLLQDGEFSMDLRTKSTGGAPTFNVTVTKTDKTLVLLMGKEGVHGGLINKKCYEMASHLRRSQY
T2 sequence (Q13148 whole entry): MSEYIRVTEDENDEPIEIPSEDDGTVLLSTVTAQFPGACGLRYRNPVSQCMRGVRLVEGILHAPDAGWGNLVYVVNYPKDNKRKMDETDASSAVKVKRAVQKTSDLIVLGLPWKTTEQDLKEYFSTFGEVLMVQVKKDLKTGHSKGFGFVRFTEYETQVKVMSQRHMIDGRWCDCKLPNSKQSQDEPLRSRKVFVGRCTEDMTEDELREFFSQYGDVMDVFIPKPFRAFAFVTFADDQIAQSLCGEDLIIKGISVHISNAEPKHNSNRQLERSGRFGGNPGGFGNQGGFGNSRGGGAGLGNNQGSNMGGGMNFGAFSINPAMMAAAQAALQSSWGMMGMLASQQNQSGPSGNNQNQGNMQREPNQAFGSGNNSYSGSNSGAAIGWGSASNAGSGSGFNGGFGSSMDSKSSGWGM
T1 sequence (Q16637 2-294): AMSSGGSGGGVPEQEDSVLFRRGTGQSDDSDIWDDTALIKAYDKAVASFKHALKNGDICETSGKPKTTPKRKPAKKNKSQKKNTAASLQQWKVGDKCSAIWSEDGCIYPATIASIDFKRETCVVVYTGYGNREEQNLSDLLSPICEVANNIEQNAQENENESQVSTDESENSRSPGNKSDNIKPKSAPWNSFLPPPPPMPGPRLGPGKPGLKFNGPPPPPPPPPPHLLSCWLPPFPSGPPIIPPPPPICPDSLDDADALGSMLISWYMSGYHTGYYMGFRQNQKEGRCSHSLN

As to `O=C1N[C@H]2[C@H](CS[C@H]2CCCCC(=O)OCCCCCCNC(=O)c2cc(-c3cccs3)on2)N1` [b-isox, biotinylated isoxazole], the “precipitation of SMN by b-isox” value at SMN is “precipitation of both SMN and sumoylated SMN”. The “morphology of SMNA7 cells” value with SMNA7 cells was “became round and detached”. Besides, the “short cylindrical filaments of TDP-43 and Lam B” value in experiment [1] is listed as “disrupted”. Moreover, the “precipitation of PFN1 by b-isox” value at PFN1 is “precipitated”. Further, the “precipitation of Rb by b-isox” value at Rb is recorded as “precipitation of Rb”.
